Measurements published in patent US20070231202A1 (priority 2006, published 2007).

How the values were obtained:
[1] = tested on: prions (10% brain homogenates from hamsters with scrapie); format: in vivo, hamster; conditions: hydrogen peroxide vapor of higher concentrations and/or higher plasma density
prions = conditions: 59% solution admitted into sterilization chamber under vacuum, vapor at one point excited into plasma

SMILES: OO [hydrogen peroxide]
- inactivating prions, rendering article non-infectious for prion diseases [1]: effective in inactivating prions
- inactivation of prions on the instruments (prions): failed to sufficiently inactivate prions
